Test results as given in patent US11274073B2, “TRPV1 modulator compounds” (ANTALGENICS, S.L., priority 2017, dated 2022).

target: T1, rat TRPV1 channel (Rattus norvegicus, UniProt O35433); assay: Calcium microfluorometry assay on TRPV1-SH-SY5Y cells, single concentration 10 μM; format: cell-based; conditions: compound 10 μM before stimulation with 10 μM capsaicin, RR (10 μM Ruthenium Red) = 100%
T1 construct: expressed in transfected cells; host or cells: SH-SY5Y (human neuroblastoma) stably expressing rat TRPV1, under puromycin selection
T1 sequence (O35433 whole entry): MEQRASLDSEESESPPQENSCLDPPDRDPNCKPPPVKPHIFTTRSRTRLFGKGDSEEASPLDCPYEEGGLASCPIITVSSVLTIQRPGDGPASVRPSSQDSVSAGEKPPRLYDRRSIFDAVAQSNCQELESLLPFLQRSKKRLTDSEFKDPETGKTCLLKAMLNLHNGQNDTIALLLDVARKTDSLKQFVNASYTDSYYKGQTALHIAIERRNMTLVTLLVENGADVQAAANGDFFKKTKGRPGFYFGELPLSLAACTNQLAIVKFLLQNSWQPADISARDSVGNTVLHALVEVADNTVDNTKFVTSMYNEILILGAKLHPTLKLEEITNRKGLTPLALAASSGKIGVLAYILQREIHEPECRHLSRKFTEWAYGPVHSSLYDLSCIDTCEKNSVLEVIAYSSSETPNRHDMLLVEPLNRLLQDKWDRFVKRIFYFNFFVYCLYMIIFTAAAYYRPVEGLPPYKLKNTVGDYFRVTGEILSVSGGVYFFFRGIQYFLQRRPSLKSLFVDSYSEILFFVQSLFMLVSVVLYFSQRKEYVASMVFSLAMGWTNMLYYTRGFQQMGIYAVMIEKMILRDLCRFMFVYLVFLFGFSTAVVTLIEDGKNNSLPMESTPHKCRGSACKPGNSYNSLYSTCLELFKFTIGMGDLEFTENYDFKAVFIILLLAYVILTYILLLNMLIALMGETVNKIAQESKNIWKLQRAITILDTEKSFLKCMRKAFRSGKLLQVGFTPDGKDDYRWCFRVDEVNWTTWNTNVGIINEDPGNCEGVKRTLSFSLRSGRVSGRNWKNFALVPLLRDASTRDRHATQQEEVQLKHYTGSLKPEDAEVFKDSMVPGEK
Experimental: The activity of the compounds was determined on TRPV1 expressing cells (TRPV1-SH-SY5Y) by Calcium microfluorometry assay.
SH-SY5Y cells stably expressing rat TRPV1 channel (SH-SY5Y-TRPV1) were grown in Earle's minimum essential medium (MEM) containing 10% (v/v) of FCS, 1% nonessential amino acids, 2 mM L-glutamine, 100 μg/ml streptomycin, 100 U/ml penicillin, and 0.4 μg/ml puromycin in a humidity-controlled incubator with 5% CO2 and at 37° C. For fluorescence assays, cells expressing TRPV1 channel (TRPV1-SH-SY5Y) were seeded in 96-well plates (Corning Incorporated, Corning, N.Y.) at a cell density of 40,000 cells 2 days before treatment. The day of treatment the medium was replaced with 100 μL of the dye loading solution Fluo-4 NW supplemented with probenecid 2.5 mM. After incubation at 37° C. in a humidified atmosphere of 5% CO2 for 60 minutes, plates were transferred to a fluorescence plate reader (Polastar Omega BMG Labtech). The baseline fluorescence of Fluo-4 dye ([…]) was recorded for 4 cycles. […] The antagonist (10 μM Ruthenium Red for TRPV1) was added for the blockade. The changes in fluorescence intensity were recorded during 10 cycles more.

SMILES | TRPV1 blockage at 10 μM (% ± SD) [%]
CCCCCCCCC(=O)OCC(=O)NCc1cc(OC)c(O)cc1I [Ex-31, 2-((4-hydroxy-2-iodo-5-methoxybenzyl)amino)-2-oxoethyl nonanoate] | 25.23 ± 7.63
CCCC(=O)OCC(=O)NCc1cc(OC)c(O)cc1I [Ex-17, 2-((4-hydroxy-2-iodo-5-methoxybenzyl)amino)-2-oxoethyl butyrate] | 14.44 ± 0.27
N.N.N.N.N.N.N.N.N.N.N.N.N.N.[Cl-].[Cl-].[Cl-].[Cl-].[Cl-].[Cl-].[O-2].[O-2].[Ru+3].[Ru+3].[Ru+4] [RR, Ruthenium Red, reference compound] | 100
CC(C)=CCC/C(C)=C/C(=O)OCC(=O)NCCc1cc(O)c(O)cc1I [Ex-59, (E)-2-((4,5-dihydroxy-2-iodophenethyl)amino)-2-oxoethyl 3,7-dimethylocta-2,6-dienoate] | 46.3 ± 12.70
CCCCC/C=C\C/C=C\C/C=C\C/C=C\CCCC(=O)OCC(=O)NCc1cc(OC)c(O)cc1I [Ex-51, (5Z,8Z,11Z,14Z)-2-((4-hydroxy-2-iodo-5-methoxy-benzyl)amino)-2-oxoethyl icosa-5,8,11,14-tetraenoate] | 30.85 ± 5.87
CCCCCCCCCC(=O)OCC(=O)NCc1cc(OC)c(O)cc1I [Ex-35, 2-((4-hydroxy-2-iodo-5-methoxybenzyl)amino)-2-oxoethyl decanoate] | 20.48 ± 9.67
CCCCCCCCCCCCCCC(=O)OCC(=O)NCc1cc(OC)c(O)cc1I [Ex-39, 2-((4-hydroxy-2-iodo-5-methoxybenzyl)amino)-2-oxoethyl pentadecanoate] | 21.82 ± 4.75
CCCCCCCC/C=C\CCCCCCCCCCCC(=O)OCC(=O)NCc1cc(OC)c(O)cc1I [Ex-49, (Z)-2-((4-hydroxy-2-iodo-5-methoxybenzyl)amino)-2-oxoethyl docos-13-enoate] | 34.94 ± 5.51
CCCCC(=O)OCC(=O)NCc1cc(OC)c(O)cc1I [Ex-19, 2-((4-hydroxy-2-iodo-5-methoxybenzyl)amino)-2-oxoethyl pentanoate] | 21.85 ± 2.85
COc1cc(CNC(=O)COC(=O)CC(C)C)c(I)cc1O [Ex-21, 2-((4-hydroxy-2-iodo-5-methoxybenzyl)amino)-2-oxoethyl 3-methyl-butanoate] | 8.35 ± 4.10
CCCCC/C=C\C/C=C\C/C=C\C/C=C\CCCC(=O)OCC(=O)NCCc1cc(O)c(O)cc1I [Ex-65, (5Z,8Z,11Z,14Z)-2-((4,5-dihydroxy-2-iodophenethyl)-amino)-2-oxoethyl icosa-5,8,11,14-tetraenoate] | 6.71 ± 2.18
CCCCCCCC/C=C\CCCCCCCC(=O)OCC(=O)NCCc1cc(O)c(O)cc1I [Ex-63, 2-((4,5-dihydroxy-2-iodophenethyl)amino)-2-oxoethyl oleate] | 1.13 ± 5.56
CCCCCC[C@H](C/C=C\CCCCCCCC(=O)OCC(=O)NCc1cc(OC)c(O)cc1I)OC(=O)Cc1ccccc1 [Ex-47, (Z)-2-((4-hydroxy-2-iodo-5-methoxybenzyl)amino)-2-oxoethyl 12-(2-phenyl-acetoxy)octadec-9-enoate] | 63.29 ± 12.80
CCCCCC(=O)OCC(=O)NCc1cc(OC)c(O)cc1I [Ex-23, 2-((4-hydroxy-2-iodo-5-methoxybenzyl)amino)-2-oxoethyl hexanoate] | 23.14 ± 7.81
CCCCCC[C@@H](O)C/C=C\CCCCCCCC(=O)OCC(=O)NCc1cc(OC)c(O)cc1I [Ex-45, (R,Z)-2-((4-hydroxy-2-iodo-5-methoxybenzyl)amino)-2-oxoethyl 12-hydroxyoctadec-9-enoate] | 21.74 ± 7.05
C/C=C/C=C/C(=O)OCC(=O)NCc1cc(OC)c(O)cc1I [Ex-25, (2E,4E)-2-((4-hydroxy-2-iodo-5-methoxybenzyl)amino)-2-oxoethyl hexa-2,4-dienoate] | 13.98 ± 5.98
COc1cc(CNC(=O)COC(=O)CC/C(C)=C/CC/C(C)=C/CC/C=C(\C)CCC=C(C)CCC=C(C)C)c(I)cc1O (stereo in doubt) [Ex-53, (4E,8E,12E,16E)-2-((4-hydroxy-2-iodo-5-methoxy-benzyl)amino)-2-oxoethyl 4,8,13,17,21-pentamethyl-docosa-4,8,12,16,20-pentaenoate] | 31.05 ± 1.46
CCCCCCCCCCCCCCCCCC(=O)OCC(=O)NCc1cc(OC)c(O)cc1I [Ex-41, 2-((4-hydroxy-2-iodo-5-methoxybenzyl)amino)-2-oxoethyl stearate] | 38.89 ± 3.53

same assay, conditions: compound 10 μM, Fluo-4 NW fluorescence, Cap (10 μM capsaicin) = 100%

SMILES | TRPV1 activation at 10 μM (% ± SD) [%]
CCCCCC[C@H](C/C=C\CCCCCCCC(=O)OCC(=O)NCc1ccc(O)c(OC)c1)OC(=O)Cc1ccccc1 [Ex-46, (Z)-2-((4-hydroxy-3-methoxy-benzyl)amino)-2-oxoethyl 12-(2-phenylacetoxy)octadec-9-enoate] | 33.16 ± 9.97
CC(C)=CCC/C(C)=C/C(=O)OCC(=O)NCCc1ccc(O)c(O)c1 [Ex-58, (E)-2-((3,4-dihydroxyphenethyl)amino)-2-oxoethyl 3,7-dimethylocta-2,6-dienoate] | 88.12 ± 9.76
CCCCCCCC/C=C\CCCCCCCC(=O)OCC(=O)NCc1ccc(O)c(OC)c1 [Ex-42, 2-((4-hydroxy-3-methoxy-benzyl)amino)-2-oxoethyl oleate] | 77.19 ± 11.95
CCCCCCCC(=O)OCC(=O)NCc1ccc(O)c(OC)c1 [Ex-28, 2-((4-hydroxy-3-methoxy-benzyl)amino)-2-oxoethyl octanoate] | 54.08 ± 4.09
CCCCCCCC/C=C\CCCCCCCCCCCC(=O)OCC(=O)NCc1ccc(O)c(OC)c1 [Ex-48, (Z)-2-((4-hydroxy-3-methoxybenzyl)amino)-2-oxoethyl docos-13-enoate] | 47.40 ± 14.56
CCCCC(=O)OCC(=O)NCc1ccc(O)c(OC)c1 [Ex-18, 2-((4-hydroxy-3-methoxy-benzyl)amino)-2-oxoethyl pentanoate] | 29.43 ± 14.90
C/C=C/C=C/C(=O)OCC(=O)NCc1ccc(O)c(OC)c1 [Ex-24, (2E,4E)-2-((4-hydroxy-3-methoxybenzyl)amino)-2-oxoethyl hexa-2,4-dienoate] | 75.59 ± 6.25
CCCCC/C=C\C/C=C\C/C=C\C/C=C\CCCC(=O)OCC(=O)NCc1ccc(O)c(OC)c1 [Ex-50, (5Z,8Z,11Z,14Z)-2-((4-hydroxy-3-methoxy-benzyl)amino)-2-oxoethyl icosa-5,8,11,14-tetraenoate] | 73.80 ± 7.42
CCCCCCC(=O)OCC(=O)NCc1ccc(O)c(OC)c1 [Ex-26, 2-((4-hydroxy-3-methoxy-benzyl)amino)-2-oxoethyl heptanoate] | 74.41 ± 17.66
COc1cc(CNC(=O)CCCC/C=C/C(C)C)ccc1O [Capsaicin, reference compound] | 100
CCCCC/C=C\C/C=C\C/C=C\C/C=C\CCCC(=O)OCC(=O)NCCc1ccc(O)c(O)c1 [Ex-64, (5Z,8Z,11Z,14Z)-2-((3,4-dihydroxyphenethyl)amino)-2-oxoethyl icosa-5,8,11,14-tetraenoate] | 79.05 ± 11.25
CCCCCCCCCC(=O)OCC(=O)NCc1ccc(O)c(OC)c1 [Ex-34, 2-((4-hydroxy-3-methoxy-benzyl)amino)-2-oxoethyl decanoate] | 47.91 ± 10.32
